Assay results: PMC12055592, “Post-symptomatic NLRP3 inhibition rescues cognitive impairment and mitigates amyloid and tau driven neurodegeneration” (Npj Dementia, 2025)

What was measured:
[1] = tested on: NLRP3 inflammasome, IL-1β release in human PBMCs; assay: PBMC in vitro assay (LPS priming, nigericin, secreted IL-1β); type: cell-based
Procedure: Cryopreserved human PBMCs (iXCells Biotechnologies, San Diego, CA) were rapidly thawed and incubated overnight at 37 °C with 5% CO2 in Complete Media: RPMI 1640 medium (ATCC modification, Thermo Fisher Scientific) supplemented with 10% Fetal bovine serum (FBS, Thermo Fisher Scientific) and 1% Penicillin-Streptomycin (Thermo Fisher Scientific). The next day, cells were centrifuged (300 × g, 5 min), resuspended in Assay Media (Complete Media without FBS) and plated at 33,333 cells/well in a 96-well cell culture plate. PBMCs were then primed with 100 ng/ml LPS (E. coli O26:B6) for 4 h. Following LPS priming, PBMCs were incubated with VEN-02XX pre-diluted in assay media with 0.8% DMSO, for 30 min (top concentration 100 µM; 4-fold titration). Following drug incubation, PBMCs were stimulated with 10 µM Nigericin (Millipore-Sigma, Burlington, MA) for an additional 60 min, after which conditioned media was collected for analysis of secreted IL-1β in an electrochemiluminescence immunoassay (Mesoscale Discovery).

[2] = tested on: 5XFAD/Rubicon KO mice; assay: Spontaneous alternation (Y-maze) in 5XFAD/Rubicon KO mice; type: in vivo, mouse
Procedure: (§1) 5XFAD/Rubicon KO mice received vehicle (0.5% w/v methylcellulose/0.1% w/v Tween® 80 in water) or VEN-02XX (0.01, 1, or 20 mg/kg) every day by oral gastric gavage for 9 weeks.
Spontaneous alternation was measured in a standard Y-maze setup. Mice were acclimated to the testing room for 48 h. In each 5-min trial, percent spontaneous alternation was measured as […][32]. Any mouse with less than 5 arm entries during the 5 min trial was excluded from the analysis.

[3] = tested on: NLRP3 inflammasome, IL-1β release in mouse whole blood; assay: Mouse whole-blood in vitro assay (LPS, ATP, secreted IL-1β); type: cell-based
Procedure: Blood was collected from CD1 female mice in lithium-Heparin tubes (Sarstedt, Numbrecht, Germany). Freshly collected blood was distributed in each well of a 96-well round-bottom cell culture plate (Corning Life Sciences, Tewksbury, MA). Blood was primed with 1 µg/ml Lipopolysaccharide (LPS) (E. coli O26:B6, Millipore, Burlington, MA) for 4.5 h, incubated at 37 °C with 5% CO2. Following LPS priming, blood was incubated with VEN-02XX pre-diluted in HBSS (Thermo Fisher Scientific, Waltham, MA) with 2% DMSO, for 30 min (top concentration 25 µM; 3-fold titration). Following drug incubation, blood was stimulated with 5 mM ATP (Millipore) for an additional 30 min at 37 °C with 5% CO2 under continuous shaking (450 RPM), after which conditioned media was collected for analysis of secreted IL-1β in an electrochemiluminescence immunoassay (Mesoscale Discovery).

[4] = tested on: 5XFAD/Rubicon KO mice; assay: Immunoblotting of NeuN and MAP2 in cortical and hippocampal lysates of 5XFAD/Rubicon KO mice; type: in vivo, mouse; details: 20 mg/kg vs vehicle, not statistically significant
Procedure: as §1
Ten ug of protein was separated by gel electrophoresis (one gel loaded with cortex samples and one gel loaded with hippocampus samples), on a 4–15% gradient Tris-glycine gel and transferred to PVDF membranes using the TransBlot Turbo semi-dry transfer system (Bio-Rad Laboratories, Hercules, CA). The membranes were blocked in Tris-buffered saline, 0.1% Tween 20 (1X TBST) with 5% milk for 1 h at room temperature followed by overnight incubation at 4 °C with primary antibodies (1:1000 rabbit anti-NeuN [EMD Millipore, Burlington, MA] and 1:10,000 rabbit anti-Vinculin [Cell Signaling, Boston, MA]) diluted in TBST with 1% milk. For the complete list of antibodies please reference Supplementary Table 2. The next day, membranes were washed three times with 1XTBST for 10 min before incubation with HRP-conjugated secondary antibody (1:500 goat anti-rabbit [Cedarlane Labs, Burlington, ON]) for 90 min at room temperature. Membranes were then washed three times with 1XTBST for 10 min and developed with Pierce ECL western blotting substrate (Thermo Fisher Scientific) and visualized on a ChemiDoc imaging system (Bio-Rad Laboratories). […]

[5] = tested on: NLRP3 inflammasome, IL-1β in iPSC-derived microglia; assay: iPSC-derived microglia in vitro assay, secreted IL-1β; type: cell-based; details: for IC50: Microglia, geometric mean, n = 5
Procedure: iPSC-derived microglia (BX-0900, BrainXell, Madison, WI) were thawed and recovered as per the supplier’s instructions. Briefly, viable cells were counted post-thaw using Trypan Blue, 0.4% (Thermo Fisher Scientific) and 25,000 cells were seeded on poly-d-lysine coated 96-well plates in DMEM-F/12 medium (Thermo Fisher Scientific) supplemented with 1X B-27 supplement (Thermo Fisher Scientific), 1X N-2 supplement (Thermo Fisher Scientific), 1X Non-essential amino acids (Thermo Fisher Scientific), 1X Chemically defined lipid mix (Thermo Fisher Scientific), 1 mM GlutaMax (Thermo Fisher Scientific), 0.2 mM Ascorbic Acid (Millipore), 100 ng/mL IL-34 (PeproTech, Cranbury, NJ), 2 ng/mL TGF-β1 (PeproTech) and 20 ng/mL M-CSF (PeproTech). Fresh media was added 3 days after seeding, half of which was replenished with fresh media 6 days following seeding. The assay was performed 7 days after cells were seeded in 96-well plates. Two assay protocol variations were performed: cells were either pre-treated with VEN-02XX to block NLRP3 inflammasome formation and then primed with LPS (Fig. 1, D. Compound added before LPS priming) or were primed with LPS and then treated with VEN-02XX (Fig. 1, D. Compound added after LPS priming). For compound treatment, cells were treated with VEN-02XX for 1 h (top concentration 100 µM; 3-fold titration) to block NLRP3 inflammasome formation. For LPS priming, cells were primed with 100 ng/mL LPS (E.coli O26:B6, Millipore) for 4 h. At the end of either protocol, cells were stimulated with 10 uM Nigericin (Millipore) for 1 h, after which conditioned media was collected for analysis of secreted IL-1β, IL-18 and TNFα in an electrochemiluminescence immunoassay (Mesoscale Discovery).

## CC(C)(O)CNc1nnc(-c2ccc(Cl)cc2C(F)(F)F)c2ccncc12 [VEN-02XX]
[1]; Homo sapiens, PBMC, geometric mean, n = 3, read-out: IL-1β inhibition (PBMCs) IC50
  IC50: 0.35 µM
[1]; in words
  potency of NLRP3 inhibition in PBMC: sub-micromolar potency
[2]; 9 weeks, 0.01, 1, 20 mg/kg PO QD vs vehicle
  spontaneous alternation (Y-maze): striking dose-dependent improvement
[2]; 9 weeks, 20 mg/kg PO QD
  spontaneous alternation (Y-maze), learning and memory: restoration of learning and memory to near wild type control levels for most animals
[3]; Mus musculus, IL-1β, geometric mean, n = 3
  IC50: 0.44 µM
[3]; in words
  potency of NLRP3 inhibition in whole blood: sub-micromolar potency
[4]
  MAP2 expression (immunoblot, normalized to vinculin): improved MAP2 levels
  NeuN protein expression (immunoblot, normalized to vinculin): consistent improvements in overall NeuN protein expression
[5]; compound added after LPS priming
  IC50: 0.25 µM
[5]; compound added before LPS priming
  IC50: 0.3 µM
[5]; in words
  potency of NLRP3 inhibition in iPSC-derived microglia: sub-micromolar potency
